Source: PubChem BioAssay (NCI)
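At the GI50, growth is halved. TGI: total growth inhibition.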

Tests used:
Assay in all cases: NCI anticancer screen, dose series, 384-well format
[1] = test system: HS 578T breast
[2] = test system: BT-549 breast
[3] = test system: DU-145 prostate
[4] = test system: 786-0 renal
[5] = test system: CCRF-CEM leukemia
[6] = test system: A498 renal
[7] = test system: SN12C renal
[8] = test system: LOX IMVI melanoma
[9] = test system: RPMI-8226 leukemia
[10] = test system: NCI/ADR-RES ovarian
[11] = test system: ACHN renal
[12] = test system: OVCAR-5 ovarian
[13] = test system: SF-268 CNS
[14] = test system: NCI-H23 lung
[15] = test system: UACC-257 melanoma
[16] = test system: SW-620 colon
[17] = test system: NCI-H522 lung
[18] = test system: TK-10 renal
[19] = test system: MCF7 breast
[20] = test system: KM12 colon
[21] = test system: SK-OV-3 ovarian
[22] = test system: UO-31 renal
[23] = test system: SF-295 CNS
[24] = test system: HCT-15 colon
[25] = test system: NCI-H226 lung
[26] = test system: UACC-62 melanoma
[27] = test system: NCI-H322M lung
[28] = test system: SK-MEL-28 melanoma
[29] = test system: SK-MEL-2 melanoma
[30] = test system: MALME-3M melanoma
[31] = test system: HOP-62 NSCLC
[32] = test system: T-47D breast
[33] = test system: HCT-116 colon
[34] = test system: MDA-MB-468 breast
[35] = test system: MDA-MB-231 breast
[36] = test system: SNB-75 CNS
[37] = test system: EKVX NSCLC
[38] = test system: K-562 leukemia
[39] = test system: MOLT-4 leukemia
[40] = test system: OVCAR-3 ovarian
[41] = test system: U251 glioblastoma
[42] = test system: HL-60(TB) leukemia
[43] = test system: SF-539 CNS
[44] = test system: M14 melanoma
[45] = test system: A549 NSCLC
[46] = test system: IGROV1 ovarian
[47] = test system: CAKI-1 renal
[48] = test system: RXF 393 renal
[49] = test system: HOP-92 NSCLC
[50] = test system: MDA-MB-435 melanoma
[51] = test system: OVCAR-4 ovarian
[52] = test system: OVCAR-8 ovarian
[53] = test system: SNB-19 CNS
[54] = test system: HT29 colon
[55] = test system: PC-3 prostate
[56] = test system: NCI-H460 NSCLC
[57] = test system: SR leukemia
[58] = test system: HCC-2998 colon
[59] = test system: SK-MEL-5 melanoma
[60] = test system: COLO 205 colon

SMILES: OCC1OC(n2cnc3c2NC=NC[C@H]3O)CC1O (some centres undefined)
- GI50 [1]: > 100 µM
- TGI [1]: > 100 µM
- GI50 [2]: > 100 µM
- TGI [2]: > 100 µM
- GI50 [3]: > 100 µM
- TGI [3]: > 100 µM
- GI50 [4]: > 100 µM
- TGI [4]: > 100 µM
- GI50 [5]: > 100 µM
- TGI [5]: > 100 µM
- GI50 [6]: > 100 µM
- TGI [6]: > 100 µM
- GI50 [7]: > 100 µM
- TGI [7]: > 100 µM
- GI50 [8]: > 100 µM
- TGI [8]: > 100 µM
- GI50 [9]: > 100 µM
- TGI [9]: > 100 µM
- GI50 [10]: > 100 µM
- TGI [10]: > 100 µM
- GI50 [11]: > 100 µM
- TGI [11]: > 100 µM
- GI50 [12]: > 100 µM
- TGI [12]: > 100 µM
- GI50 [13]: > 100 µM
- TGI [13]: > 100 µM
- GI50 [14]: > 100 µM
- TGI [14]: > 100 µM
- GI50 [15]: > 100 µM
- TGI [15]: > 100 µM
- GI50 [16]: > 100 µM
- TGI [16]: > 100 µM
- GI50 [17]: > 100 µM
- TGI [17]: > 100 µM
- GI50 [18]: > 100 µM
- TGI [18]: > 100 µM
- GI50 [19]: > 100 µM
- TGI [19]: > 100 µM
- GI50 [20]: > 100 µM
- TGI [20]: > 100 µM
- GI50 [21]: > 100 µM
- TGI [21]: > 100 µM
- GI50 [22]: > 100 µM
- TGI [22]: > 100 µM
- GI50 [23]: > 100 µM
- TGI [23]: > 100 µM
- GI50 [24]: > 100 µM
- TGI [24]: > 100 µM
- GI50 [25]: > 100 µM
- TGI [25]: > 100 µM
- GI50 [26]: > 100 µM
- TGI [26]: > 100 µM
- GI50 [27]: > 100 µM
- TGI [27]: > 100 µM
- GI50 [28]: > 100 µM
- TGI [28]: > 100 µM
- GI50 [29]: > 100 µM
- TGI [29]: > 100 µM
- GI50 [30]: > 100 µM
- TGI [30]: > 100 µM
- GI50 [31]: > 100 µM
- TGI [31]: > 100 µM
- GI50 [32]: > 100 µM
- TGI [32]: > 100 µM
- GI50 [33]: > 100 µM
- TGI [33]: > 100 µM
- GI50 [34]: > 100 µM
- TGI [34]: > 100 µM
- GI50 [35]: > 100 µM
- TGI [35]: > 100 µM
- GI50 [36]: > 100 µM
- TGI [36]: > 100 µM
- GI50 [37]: > 100 µM
- TGI [37]: > 100 µM
- GI50 [38]: > 100 µM
- TGI [38]: > 100 µM
- GI50 [39]: > 100 µM
- TGI [39]: > 100 µM
- GI50 [40]: > 100 µM
- TGI [40]: > 100 µM
- GI50 [41]: > 100 µM
- TGI [41]: > 100 µM
- GI50 [42]: > 100 µM
- TGI [42]: > 100 µM
- GI50 [43]: > 100 µM
- TGI [43]: > 100 µM
- GI50 [44]: > 100 µM
- TGI [44]: > 100 µM
- GI50 [45]: > 100 µM
- TGI [45]: > 100 µM
- GI50 [46]: > 100 µM
- TGI [46]: > 100 µM
- GI50 [47]: > 100 µM
- TGI [47]: > 100 µM
- GI50 [48]: > 100 µM
- TGI [48]: > 100 µM
- GI50 [49]: > 100 µM
- TGI [49]: > 100 µM
- GI50 [50]: > 100 µM
- TGI [50]: > 100 µM
- GI50 [51]: > 100 µM
- TGI [51]: > 100 µM
- GI50 [52]: > 100 µM
- TGI [52]: > 100 µM
- GI50 [53]: > 100 µM
- TGI [53]: > 100 µM
- GI50 [54]: > 100 µM
- TGI [54]: > 100 µM
- GI50 [55]: > 100 µM
- TGI [55]: > 100 µM

SMILES: COc1nc(N)nc2c1ncn2[C@@H]1O[C@H](CO)[C@@H](O)[C@@H]1O
- GI50 [1]: > 100 µM
- TGI [1]: > 100 µM
- GI50 [2]: > 100 µM
- TGI [2]: > 100 µM
- GI50 [3]: > 100 µM
- TGI [3]: > 100 µM
- GI50 [56]: > 100 µM
- TGI [56]: > 100 µM
- GI50 [4]: > 100 µM
- TGI [4]: > 100 µM
- GI50 [6]: > 100 µM
- TGI [6]: > 100 µM
- GI50 [7]: > 100 µM
- TGI [7]: > 100 µM
- GI50 [8]: > 100 µM
- TGI [8]: > 100 µM
- GI50 [9]: > 100 µM
- TGI [9]: > 100 µM
- GI50 [10]: > 100 µM
- TGI [10]: > 100 µM
- GI50 [11]: > 100 µM
- TGI [11]: > 100 µM
- GI50 [12]: > 100 µM
- TGI [12]: > 100 µM
- GI50 [13]: > 100 µM
- TGI [13]: > 100 µM
- GI50 [14]: > 100 µM
- TGI [14]: > 100 µM
- GI50 [15]: > 100 µM
- TGI [15]: > 100 µM
- GI50 [16]: > 100 µM
- TGI [16]: > 100 µM
- GI50 [17]: > 100 µM
- TGI [17]: > 100 µM
- GI50 [18]: > 100 µM
- TGI [18]: > 100 µM
- GI50 [19]: > 100 µM
- TGI [19]: > 100 µM
- GI50 [20]: > 100 µM
- TGI [20]: > 100 µM
- GI50 [21]: > 100 µM
- TGI [21]: > 100 µM
- GI50 [22]: > 100 µM
- TGI [22]: > 100 µM
- GI50 [23]: > 100 µM
- TGI [23]: > 100 µM
- GI50 [24]: > 100 µM
- TGI [24]: > 100 µM
- GI50 [25]: > 100 µM
- TGI [25]: > 100 µM
- GI50 [26]: > 100 µM
- TGI [26]: > 100 µM
- GI50 [27]: > 100 µM
- TGI [27]: > 100 µM
- GI50 [28]: > 100 µM
- TGI [28]: > 100 µM
- GI50 [30]: > 100 µM
- TGI [30]: > 100 µM
- GI50 [31]: > 100 µM
- TGI [31]: > 100 µM
- GI50 [32]: > 100 µM
- TGI [32]: > 100 µM
- GI50 [33]: > 100 µM
- TGI [33]: > 100 µM
- GI50 [34]: > 100 µM
- TGI [34]: > 100 µM
- GI50 [35]: > 100 µM
- TGI [35]: > 100 µM
- GI50 [36]: > 100 µM
- TGI [36]: > 100 µM
- GI50 [37]: > 100 µM
- TGI [37]: > 100 µM
- GI50 [39]: 1.31 µM
- TGI [39]: 2.59 µM
- GI50 [40]: > 100 µM
- TGI [40]: > 100 µM
- GI50 [41]: > 100 µM
- TGI [41]: > 100 µM
- GI50 [57]: > 100 µM
- TGI [57]: > 100 µM
- GI50 [42]: > 100 µM
- TGI [42]: > 100 µM
- GI50 [43]: > 100 µM
- TGI [43]: > 100 µM
- GI50 [44]: > 100 µM
- TGI [44]: > 100 µM
- GI50 [45]: > 100 µM
- TGI [45]: > 100 µM
- GI50 [46]: > 100 µM
- TGI [46]: > 100 µM
- GI50 [47]: > 100 µM
- TGI [47]: > 100 µM
- GI50 [58]: > 100 µM
- TGI [58]: > 100 µM
- GI50 [48]: > 100 µM
- TGI [48]: > 100 µM
- GI50 [49]: > 100 µM
- TGI [49]: > 100 µM
- GI50 [50]: > 100 µM
- TGI [50]: > 100 µM
- GI50 [51]: > 100 µM
- TGI [51]: > 100 µM
- GI50 [59]: > 100 µM
- TGI [59]: > 100 µM
- GI50 [52]: > 100 µM
- TGI [52]: > 100 µM
- GI50 [53]: > 100 µM
- TGI [53]: > 100 µM
- GI50 [54]: > 100 µM
- TGI [54]: > 100 µM
- GI50 [55]: > 100 µM
- TGI [55]: > 100 µM
- GI50 [60]: > 100 µM
- TGI [60]: > 100 µM
